The text below walks through data of US20260183304A1, “COMBINATION OF A TYROSINE KINASE INHIBITOR AND A PRO-INFLAMMATORY AGENT FOR TREATING CANCER” (MDX Management LLC, priority 2022, published 2026).

For data set [1], the system named is macrophage SHP-1 activity. The data set can be described thus: Macrophage SHP-1 (PTP) activity induced by αTLR and cancer cell ligation. The note with it: induced by αTLR (CpG, PolyIC, R848) and SW620 cancer cell ligation. It is filed as cell-based, human. Here is the method: . After incubation for 15 minutes at 37° C., cells were gently washed to remove the majority of SW620, followed by lysis of macrophage using Hank's buffer (pH 7.2) containing 1% Triton and 1 mM PMSF. Protein tyrosine phosphatase (PTP) activity was assayed with […] Hank's buffer at 37° C.
(§1) In vitro assays. Macrophage response to αTLR was assayed in the presence of cancer cell ligation and with or without TK inhibitor. Macrophage SHP-1 activity (PTP activity), macrophage expression of antigen presentation machinery and proinflammatory cytokines were assayed.
(§2) The same in vitro macrophage stimulation in the present of cancer cell ligation experimental system as in Example 1 was used.
Specifically, an in vitro macrophage functional assay was set up in the presence of cancer cell (SW620) ligation of macrophage iRs. […]. In vivo anti-tumor efficacies with the combination of αTLR were shown in (FIG. 9C).

For data set [2], the system named is macrophages. Description: Macrophage proinflammatory cytokine production with αTLR and cancer cell ligation. Type of data set: cell-based, human and murine. The note with it: αTLR-induced, in presence of cancer cell ligation. Here is the method: (§3) After incubation for 15 minutes at 37° C., cells were gently washed to remove the majority of SW620, followed by lysis of macrophage using Hank's buffer (pH 7.2) containing 1% Triton and 1 mM PMSF. Protein tyrosine phosphatase (PTP) activity was assayed with […] Hank's buffer at 37° C.
as §1, §2

Data set [3] concerns macrophages. Description: Macrophage expression of cell surface antigen presentation machinery with αTLR and cancer cell ligation. Type of data set: cell-based, human and murine. The note with it: αTLR-induced, in presence of cancer cell ligation. Here is the method:
as §3, §1, §2

The subject of data set [4] is MC38, KPC and LLC tumor models. The data set can be described thus: Syngeneic murine tumor models, TKi alone or with proinflammatory activators. The following applies: for anti-tumor efficacy, alone/monotherapy: TKi alone. It is filed as in vivo, mice.
Another data set has as its target Lck (Homo sapiens, UniProt P06239). The note with it: information vendor provided; cited from earlier work.
In a further data set the target is Lyn (Homo sapiens, UniProt P07948). The note with it: information vendor provided; cited from earlier work.
Lyn, sequence (P07948 whole entry, species assumed): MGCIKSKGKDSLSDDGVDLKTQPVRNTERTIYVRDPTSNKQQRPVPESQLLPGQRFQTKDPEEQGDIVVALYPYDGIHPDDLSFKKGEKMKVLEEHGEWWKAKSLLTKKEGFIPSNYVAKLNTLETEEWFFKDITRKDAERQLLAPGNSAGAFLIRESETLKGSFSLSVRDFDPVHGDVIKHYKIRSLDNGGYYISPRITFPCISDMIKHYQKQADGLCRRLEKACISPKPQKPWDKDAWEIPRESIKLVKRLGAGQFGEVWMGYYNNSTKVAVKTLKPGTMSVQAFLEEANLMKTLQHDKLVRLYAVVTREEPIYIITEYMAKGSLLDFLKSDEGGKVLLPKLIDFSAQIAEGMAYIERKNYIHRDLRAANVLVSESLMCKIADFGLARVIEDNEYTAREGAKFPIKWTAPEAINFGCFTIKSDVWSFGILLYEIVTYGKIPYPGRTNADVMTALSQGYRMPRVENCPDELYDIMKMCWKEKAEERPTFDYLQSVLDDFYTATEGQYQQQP
A further data set has as its system SIRPα and PirB. Description: iR phosphorylation and binding to SHP-1 in bone-marrow-derived macrophages. The following applies: TLR agonist- and cancer ligation-induced, murine bone-marrow-derived macrophages.
In data set [5] the test system is malignant melanoma and advanced malignancies. The following applies: Phase I, cited from earlier work.
The next data set concerns LLC lung cancer. Description: LLC tumor treatment and TME analyses. It is filed as in vivo, mice. The note with it: combined with αTLR. Here is the method:
Three types of solid tumors were tested: 1) MC38 colorectal carcinoma, 2) KPC pancreatic ductal adenocarcinoma, and 3) LLC lung cancer. Tumors were subcutaneously engrafted (s.c.), and treatments started when palpable tumors formed >=200 mm^3. […] In most experiments, TKi and αTLR agonist were together suspended in 500 μl PBS and administered via s.c. at a location distant form tumor. The intermittent treatment scheme was designed to administrate the first cycle, 2× pulse administrations (d1 and d2), an intermittent period (3-7 days), followed by a second cycle treatment.
In vivo tests for anti-tumor efficacy.

For a further data set, the system named is SIRPα. The data set can be described thus: SIRPα ITIMs phosphorylation and SHP-1 association in macrophages activated by proinflammatory stimuli. The following applies: macrophage activation by proinflammatory stimuli or cancer therapies. Type of data set: cell-based. The text has this: As shown, proinflammatory stimuli (TLR agonists, proinflammatory cytokines IL-1β, IL-6, IL-12, IL-17, IL-18, TNFα, IFNγ, etc., and cancer therapies) induce SIRPα ITIMs phosphorylation and exclusive association of SHP-1 (not SHP-2). Anti-inflammatory cytokine stimulation also induces SIRPα ITIMs phosphorylation but association with SHP-2.

A further data set concerns the target c-Src (Homo sapiens, UniProt P12931). The note with it: information vendor provided; cited from earlier work.
Data set [6] deals with TLR7/8 overexpressing pancreatic cancer cell line. The following applies: R848-stimulation; cited from earlier work.

c-Src, sequence (P12931 whole entry): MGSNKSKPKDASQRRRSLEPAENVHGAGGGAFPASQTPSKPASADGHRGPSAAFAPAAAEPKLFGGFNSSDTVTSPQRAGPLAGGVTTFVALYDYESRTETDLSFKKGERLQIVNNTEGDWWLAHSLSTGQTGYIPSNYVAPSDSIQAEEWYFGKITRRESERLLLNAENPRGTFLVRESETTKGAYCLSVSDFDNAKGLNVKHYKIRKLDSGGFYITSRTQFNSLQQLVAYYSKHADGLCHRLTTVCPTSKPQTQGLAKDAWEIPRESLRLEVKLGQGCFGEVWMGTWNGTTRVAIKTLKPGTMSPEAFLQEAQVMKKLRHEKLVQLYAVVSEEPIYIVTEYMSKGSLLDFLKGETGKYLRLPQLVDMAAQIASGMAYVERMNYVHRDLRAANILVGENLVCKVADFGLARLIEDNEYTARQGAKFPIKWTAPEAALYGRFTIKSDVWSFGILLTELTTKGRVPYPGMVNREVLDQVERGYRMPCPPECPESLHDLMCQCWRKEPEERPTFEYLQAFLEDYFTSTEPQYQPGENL
Lck, sequence (P06239 whole entry, species assumed): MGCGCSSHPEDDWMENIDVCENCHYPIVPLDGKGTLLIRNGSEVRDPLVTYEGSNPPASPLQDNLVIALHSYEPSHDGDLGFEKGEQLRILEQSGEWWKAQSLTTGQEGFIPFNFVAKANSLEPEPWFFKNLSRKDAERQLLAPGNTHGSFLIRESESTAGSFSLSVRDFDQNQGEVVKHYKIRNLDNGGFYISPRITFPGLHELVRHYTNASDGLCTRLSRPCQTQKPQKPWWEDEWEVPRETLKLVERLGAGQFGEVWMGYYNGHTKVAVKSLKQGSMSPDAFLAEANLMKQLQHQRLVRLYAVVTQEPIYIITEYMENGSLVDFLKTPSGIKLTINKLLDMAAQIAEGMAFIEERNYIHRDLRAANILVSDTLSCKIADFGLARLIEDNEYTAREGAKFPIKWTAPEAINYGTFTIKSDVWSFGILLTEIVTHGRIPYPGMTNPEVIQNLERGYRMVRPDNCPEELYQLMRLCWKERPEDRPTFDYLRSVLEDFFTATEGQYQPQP

Broadly, the IC50 is the concentration that gives 50% inhibition. On to `CN1CCN([C@H]2CC[C@H](n3cc(-c4ccc(Oc5ccccc5)cc4)c4c(N)ncnc43)CC2)CC1` [RK-20449, 7-((1R,4R)-4-(4-methylpiperazin-1-yl)cyclohexyl)-5-(4-phenoxyphenyl)-7H-pyrrolo[2,3-d]pyrimidin-4-amine], for which the “macrophage SHP-1 activity (PTP activity)” value in [1] is given as “dose-dependently diminished”. The “production of proinflammatory cytokines (TNFα, IL-6, CXCL1)” value (shortened to “production of proinflammatory cytokines”) in the data set on macrophages [2] is listed as “marked increases”. In the data set with macrophages [3], the “expression of cell surface antigen presentation machinery” value (“expression” below) is on record as “marked increases”. The “anti-tumor efficacy, alone/monotherapy” value in data set [4] is “not effective”. The half-inhibitory concentration (IC50) at Lck and on Lyn was < 3 nM in each case. Further, the “iR phosphorylation and binding to SHP-1” value with SIRPα and PirB is listed as “depleted”.

Regarding `O.O.O.O.O.O.O.O.O.O=C([O-])[C@@H]1[O][Sb]2([O-])([O][Sb]34([OH])[O][C@H]([C@H](O)CO)[C@H]([O]3)[C@H](C(=O)[O-])[O]4)[O][C@H]([C@H](O)CO)[C@@H]1[O]2.[Na+].[Na+].[Na+]` [SSG, sodium stibogluconate], the “effect against tumor development” value in [5] (in combination with interferons followed or not by chemotherapy) was “no effect”. Besides, in data set [5], the “patients with most common toxic side-effects” value is listed as “up to 68%”.

For `Cc1nc(Nc2ncc(C(=O)Nc3c(C)cccc3Cl)s2)cc(N2CCN(CCO)CC2)n1` [Dasatinib, N-(2-chloro-6-methylphenyl)-2-[[6-[4-(2-hydroxyethyl)-1-piperazinyl]-2-methyl-4-pyrimidinyl]amino]-5-thiazole carboxamide monohydrate], in data set [1], the “macrophage SHP-1 activity (PTP activity)” value was “dose-dependently diminished”. For the same compound, in the data set on macrophages [2], the “production of proinflammatory cytokines” value is reported as “marked increases”. In addition, in the data set with macrophages [3], the “expression” value is reported as “marked increases”. For the same compound, the “anti-tumor efficacy, alone/monotherapy” value in [4] was “not effective”. For the same compound, in [4] (mouse, in vivo), the angiogenesis in tumors result is “inhibits”. In addition, in the data set with LLC lung cancer (LLC tumors, 3-day post treatment, various doses), the “TME immune populations (CD8+ T cells, NK cells, macrophages, MDSC)” value was “dose-dependent effect of elevating CD8+ T cells and NK cells and reducing macrophages and MDSC”. Moreover, the “iR phosphorylation and binding to SHP-1” value in the data set with SIRPα and PirB is on record as “depleted”.

In the case of `COc1cc(Nc2ncc(F)c(Nc3ccc4c(n3)NC(=O)C(C)(C)O4)n2)cc(OC)c1OC` [R406], in data set [1], the “macrophage SHP-1 activity (PTP activity)” value is “capability of diminishing”. Besides, the “production of proinflammatory cytokines” value in the data set with macrophages [2] was “Neither UM164 nor R406 enabled”. Moreover, the “expression” value in the data set with macrophages [3] is listed as “elevated”. Further, in the data set on LLC lung cancer, the “intratumoral CD8+ T cell expansion” value is listed as “induced intratumoral CD8+ T cell expansion”, the “intratumoral macrophage antigen presentation” value was “induced intratumoral macrophages for antigen presentation” and the “suppression of LLC tumor” value is given as “effectively suppressed”.

For the compound `C/C(O)=C(\C#N)C(=O)Nc1cc(Br)ccc1Br` [LFMA-13], in the data set with SIRPα, the “SIRPα cytoplasmic ITIMs phosphorylation and SIRPα association with SHP-1” value is reported as “not”.

As to `CC(C)CCC[C@@H](C)[C@H]1CC[C@H]2[C@@H]3CCC4C[C@H](N)CC[C@]4(C)[C@H]3CC[C@]12C` (stereo partly drawn) [3Ac], the “suppression of LLC tumor” value in the data set on LLC lung cancer was “not”.

Turning to `CC(C)(C)n1nc(-c2ccc(Cl)cc2)c2c(N)ncnc21` [PP2], in the data set on SIRPα, the “SIRPα cytoplasmic ITIMs phosphorylation and SIRPα association with SHP-1” value is “diminished”.

As for `Cc1nc(Nc2ncc(C(=O)Nc3cc(NC(=O)c4cccc(C(F)(F)F)c4)ccc3C)s2)cc(N2CCN(CCO)CC2)n1` [UM-164], the “macrophage SHP-1 activity (PTP activity)” value in data set [1] is on record as “capability of diminishing”. Also, the “production of proinflammatory cytokines” value in the data set on macrophages [2] is “Neither UM164 nor R406 enabled”. For the same compound, in the data set on macrophages [3], the “expression” value is listed as “elevated”. Moreover, in the data set on LLC lung cancer, the “suppression of LLC tumor” value is on record as “not”. Also, at c-Src, the IC50 was 2.7 nM.

Turning to `Cc1ccc(-c2nn(C(C)(C)C)c3ncnc(N)c23)cc1` [PP1], the “SIRPα cytoplasmic ITIMs phosphorylation and SIRPα association with SHP-1” value with SIRPα is recorded as “diminished”.

With `CCOCc1nc2c(N)nc3ccccc3c2n1CC(C)(C)O` [R848], in data set [6], the cell proliferation result is “increased” and the chemosensitivity result is reported as “reduced”.
